In ChEMBL document CHEMBL1201862, “PubChem BioAssay data set” (2004):
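Tested at 5 concentrations; 48 h exposure; 96-well plates; endpoints linearly interpolated, else capped at highest concentration. GI50 is the concentration that inhibits growth by half.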 Active and inactive are the calls of the source. Cut-off read from the data, not from the text of the source: active = GI50 up to about 1.1 µM and inactive = higher.

Key:
Test in all cases: growth of human tumour cells (NCI), 48 h
A549 = tested on: A549
CCRF-CEM = tested on: CCRF-CEM
HCT-116 = tested on: HCT-116
HT-29 = tested on: HT-29
KM-20L2 = tested on: KM-20L2
LOX IMVI = tested on: LOX IMVI
NCI-H23 = tested on: NCI-H23
OVCAR-5 = tested on: OVCAR-5
OVCAR-8 = tested on: OVCAR-8
SN12C = tested on: SN12C
SNB-19 = tested on: SNB-19
SNB-75 = tested on: SNB-75
SW-620 = tested on: SW-620
EKVX = tested on: EKVX
M14 = tested on: M14
HOP-62 = tested on: HOP-62
DU-145 = tested on: DU-145
MDA-N = tested on: MDA-N
PC-3 = tested on: PC-3
SR = tested on: SR

| SMILES | GI50 (A549) | GI50 (CCRF-CEM) | GI50 (HCT-116) | GI50 (HT-29) | GI50 (KM-20L2) | GI50 (LOX IMVI) | GI50 (NCI-H23) | GI50 (OVCAR-5) | GI50 (OVCAR-8) | GI50 (SN12C) | GI50 (SNB-19) | GI50 (SNB-75) | GI50 (SW-620) | GI50 (EKVX) | GI50 (M14) | GI50 (HOP-62) | GI50 (DU-145) | GI50 (MDA-N) | GI50 (PC-3) | GI50 (SR) |
| --- | --- | --- | --- | --- | --- | --- | --- | --- | --- | --- | --- | --- | --- | --- | --- | --- | --- | --- | --- | --- |
| O=P(NCCCO)(OCc1ccccc1)N(CCCl)CCCl (configuration not stated) | > 100 µM (inactive) | > 100 µM (inactive) | > 100 µM (inactive) | > 100 µM (inactive) | > 100 µM (inactive) | > 100 µM (inactive) | > 100 µM (inactive) | > 100 µM (inactive) | > 100 µM (inactive) | > 100 µM (inactive) | > 100 µM (inactive) | > 100 µM (inactive) | > 100 µM (inactive) | – | – | – | – | – | – | – |
| COCC1N=C(c2cc(OC)c(OC)c(OC)c2-c2cc3c(cc2[C@H](C)O)OCO3)O[C@H]1c1ccccc1 (some centres not stated) | 56.8 µM (inactive) | > 10 µM (inactive) | 44.6 µM (inactive) | 76.2 µM (inactive) | > 100 µM (inactive) | 63.2 µM (inactive) | 87.7 µM (inactive) | – | 81.5 µM (inactive) | 46.5 µM (inactive) | 61 µM (inactive) | 49.2 µM (inactive) | > 100 µM (inactive) | > 100 µM (inactive) | 72.3 µM (inactive) | – | – | – | – | – |
| Cc1ccccc1/N=N/C(C(=O)c1ccccc1)C(=O)c1ccccc1 | 24.9 µM (inactive) | 9.46 µM (inactive) | 16.1 µM (inactive) | 28 µM (inactive) | 27.7 µM (inactive) | – | 18.3 µM (inactive) | 31.1 µM (inactive) | 31.8 µM (inactive) | 20 µM (inactive) | 18.9 µM (inactive) | 19.1 µM (inactive) | 25.9 µM (inactive) | 25.2 µM (inactive) | 18.1 µM (inactive) | 23.8 µM (inactive) | – | – | – | – |
| OC1(c2ccc3ccccc3c2)c2ccc3ccccc3c2C2=NCCN21 (configuration not stated) | 46.5 µM (inactive) | > 100 µM (inactive) | 34.6 µM (inactive) | > 100 µM (inactive) | – | 91.8 µM (inactive) | > 100 µM (inactive) | > 100 µM (inactive) | 23.3 µM (inactive) | > 100 µM (inactive) | 66.8 µM (inactive) | 24.9 µM (inactive) | 94.8 µM (inactive) | > 100 µM (inactive) | > 100 µM (inactive) | 18.5 µM (inactive) | > 100 µM (inactive) | > 100 µM (inactive) | > 100 µM (inactive) | 36.8 µM (inactive) |
| C=CC[C@]1(C2=NC(C)(C)CO2)c2ccccc2-c2ccccc2[C@H]1C(C)=O | 9.31 µM (inactive) | 7.1 µM (inactive) | 5.4 µM (inactive) | 4.19 µM (inactive) | – | 10.6 µM (inactive) | 12.7 µM (inactive) | 19.9 µM (inactive) | 15.7 µM (inactive) | 15.6 µM (inactive) | 11.6 µM (inactive) | 10.9 µM (inactive) | 7.55 µM (inactive) | 15.6 µM (inactive) | 7.76 µM (inactive) | 0.643 µM (active) | 14.4 µM (inactive) | 2.74 µM (inactive) | 6.41 µM (inactive) | 3.27 µM (inactive) |
| N#Cc1c(O)c(/N=N/c2ccc(Cl)cc2)c(=O)n2c1[nH]c1ccccc12 | 44.9 µM (inactive) | 31.2 µM (inactive) | 37.9 µM (inactive) | 35.8 µM (inactive) | – | > 100 µM (inactive) | 46 µM (inactive) | 62.2 µM (inactive) | 37.8 µM (inactive) | 46.5 µM (inactive) | 47.3 µM (inactive) | 37.7 µM (inactive) | 63.2 µM (inactive) | > 100 µM (inactive) | 36 µM (inactive) | 17.5 µM (inactive) | 38.5 µM (inactive) | 38.7 µM (inactive) | 36.2 µM (inactive) | 29.9 µM (inactive) |
| NNC(=O)c1c(Cl)c(Cl)c(Cl)c(Cl)c1-c1nc2ccccc2[nH]1 | 10 µM (inactive) | 12.5 µM (inactive) | 13.2 µM (inactive) | 14.8 µM (inactive) | – | 12.7 µM (inactive) | 15.6 µM (inactive) | 36.7 µM (inactive) | 29 µM (inactive) | 27 µM (inactive) | 19.6 µM (inactive) | 12.5 µM (inactive) | 10 µM (inactive) | 12.4 µM (inactive) | 9.55 µM (inactive) | 4.29 µM (inactive) | 13.2 µM (inactive) | 2.94 µM (inactive) | 16.6 µM (inactive) | 2.63 µM (inactive) |
| CC(=O)c1cc2ccccc2oc1=O [3-ACETYLCOUMARIN] | > 100 µM (inactive) | > 100 µM (inactive) | > 100 µM (inactive) | > 100 µM (inactive) | – | > 100 µM (inactive) | > 100 µM (inactive) | > 100 µM (inactive) | > 100 µM (inactive) | > 100 µM (inactive) | > 100 µM (inactive) | > 100 µM (inactive) | > 100 µM (inactive) | > 100 µM (inactive) | > 100 µM (inactive) | > 100 µM (inactive) | > 100 µM (inactive) | > 100 µM (inactive) | > 100 µM (inactive) | > 100 µM (inactive) |
